Experimental data: paper PMC5841658, “Anti-cancer characteristics and ototoxicity of platinum(II) amine complexes with only one leaving ligand” (PLoS ONE, 2018)

Key:
[1] = tested on: Caco-2 colorectal cancer cell line; experiment: MTT cellular viability assay, Caco2; format: cell-based; settings: 72 hours, ± standard deviation
Procedure: (§1) Cell lines were obtained from American Type Culture Collection (ATCC, Manassas, VA). […] Caco-2 (ATCC: HTB-37) colorectal cancer was grown in EMEM with 20% FBS and 1% penicillin/streptomycin. All cell lines were incubated at 37°C in 5% CO2 with passaging every 4–7 days. Cell culture media and supplements were obtained from ATCC, Atlanta Biologicals (Flowery Branch, GA), Mediatech (Tewksbury, MA), Fisher Scientific (Waltham, MA), Gibco (Gaithersburg, MD) and Sigma-Aldrich.
(§2) The MTT (3-(4,5-dimethylthiazol-2-yl)-2,5-diphenyltetrazolium bromide) cellular viability assay was performed in all three cancer cell lines and the non-cancer cell line. Following a protocol adapted from, cells were seeded at 5,000 cells per well in 96-well plates and incubated at 37°C in 5% CO2 in F-12K Medium or EMEM with FBS supplementation and 1% penicillin/streptomycin for 24 hours. Then, wells were treated in replicates of six according to a concentration series (500, 50, 5, 0.5, 0.05 μM) of specific platinum complexes for 72 hours. A negative control (media only), positive control (Triton X-100) and series of blanks were simultaneously performed. The MTT assay was run for 2 hours, then well contents were rapidly evacuated out and all wells were treated with MTT solubilization solution [10% Triton X-100 in acidic (0.1N HCl) isopropanol] for 15 minutes before the plates were read using a BioTek Synergy HT microplate plate reader (570 nm and 690 nm absorbance wavelengths). Reagents, cell culture media and supplements were obtained from ATCC, Atlanta Biologicals, Mediatech, Fisher Scientific, Gibco and Sigma-Aldrich.
(§3) GraphPad Prism v6 (La Jolla, CA) was used for all statistical analysis. Nuclear fraction platinum uptake as a total percent of combined nuclear and cytosolic uptake was analyzed using a one-way ANOVA (Brown-Forsyth test; p ≤ 0.05). IC50 values were calculated in Prism using the sigmoidal, 4PL, x is log(concentration) analysis feature or were calculated from Prism derived values using the equation y = mx + b. MTT assay standard deviation values were calculated using ED50plus v1.0 online software. AEP threshold data were analyzed by two-way ANOVA (Dunnett’s multiple comparisons test; p ≤ 0.05) and hair cell quantification data by two-way ANOVA (Tukey’s multiple comparisons test; p ≤ 0.05). AEP temporary threshold shifts (TTS) were calculated by subtracting the mean vehicle threshold for each frequency from each treatment threshold. TTS data were averaged across frequencies for each treatment and were analyzed by one-way ANOVA (Tukey’s multiple comparisons test; p ≤ 0.05).

[2] = tested on: U-138 MG (HTB-16) glioblastoma cancer cell line; experiment: MTT cellular viability assay, HTB16; format: cell-based; settings: HTB16 (glioma), 72 hours, ± standard deviation
Procedure: as §1, §2, §3

[3] = tested on: IMR-90 lung fibroblast control cell line; experiment: MTT cellular viability assay, IMR90; format: cell-based; settings: IMR90 (fibroblast, non-cancer), 72 hours, ± standard deviation
Procedure: as §1, §2, §3

[4] = tested on: zebrafish hearing thresholds; experiment: Auditory evoked potential (AEP) testing in zebrafish inner ear model; format: in vivo, Danio rerio; settings: 25 mg/kg i.p.; for mean (± S.E.) temporary threshold shift (TTS), averaged across frequencies: 48 hours, vehicle threshold subtracted; for AEP hearing threshold, significance of pairwise comparison against cisplatin / AEP hearing threshold, significance of pairwise comparison against vehicle: 48 h
Procedure: (§4) Zebrafish (Danio rerio) were purchased from a commercial supplier (Segrest Farms, Gibsonton, FL) and maintained in the animal facility of Western Kentucky University according to a protocol approved by the Institutional Animal Care and Use Committee. All zebrafish used in this study were a mix of male and female adult animals at least 6 months of age and were maintained according to standard methods.
(§5) After injection, fish were returned to holding tanks for either 24 or 48 hours and then subjected to hearing tests followed by hair cell quantification analysis.
Auditory evoked potential (AEP) testing was performed on individual fish according to standard protocols. […] After harness placement was complete, three 27 gauge stainless steel electrodes (Rochester Electro-Medical, Inc., Lutz, FL) were inserted approximately 2 mm subdermally to record AEPs. A reference electrode was inserted into the medial dorsal surface of the head, a recording electrode directly over the brainstem and a ground electrode in the tail musculature. Sound stimuli (tone pips) were presented to each fish at 8 frequencies (100, 250, 400, 600, 800, 1000, 1500 and 3000 Hz) and AEP waveforms were collected using a TDT System III physiology apparatus (Tucker-Davis Technologies Inc., Alachua, FL) running SigGen and BioSig software. Auditory stimuli were passed through a P1000 power amplifier (Hafler, Port Coquitlam, BC) and presented with a University Sound UW-30 underwater speaker (Electro-Voice, Fairport, NY). Sound pressure levels were confirmed using a Type 10CT hydrophone (G.R.A.S., Holte, Denmark) placed adjacent to the mesh harness. Auditory thresholds were determined in 5 dB increments by visual inspection of AEP waveforms.
as §3

[5] = tested on: zebrafish saccule hair cells; experiment: Hair cell quantification, saccule; format: in vivo, Danio rerio; settings: 25 mg/kg i.p., 48 hours; for effect on hair cell density in four regions of the saccule compared to vehicle: 5, 25, 50, 75% regions
Procedure: as §4, §5
Hair cell counts were performed from specific regions of the zebrafish saccule and utricle using established procedures. […] Prior to dissection, heads were rinsed three times for 10 minutes each at room temperature in phosphate buffer (pH 7.4, LabChem, Pittsburgh, PA) and the inner ear epithelia (saccule and utricle) were then carefully dissected out and trimmed. […] Tissue samples were then placed on glass slides and nuclei were labelled with Prolong Gold antifade reagent (4’,6-diamidino-2-phenylindole [DAPI], Life Technologies, Carlsbad, CA) and a cover-slip was placed over the samples for microscopy.
Saccule and utricle samples were viewed through the FITC filter of a Zeiss Axioplan2 epifluorescence microscope (Carl Zeiss, Jena, Germany) at 20X magnification and were then photographed using an AxioCam MRm camera. Cell counts were made from four regions of the saccule (5%, 25%, 50%, 75%) along the rostral-caudal length of the organ by placing a 50 μm x 50 μm box at each location and using the microscope cell counter feature. In the utricular samples, cell counts were made from three equidistant 50 μm x 50 μm boxes in both the extrastriolar and striolar regions.
as §3

Compound	IC50 [1]	IC50 [2]	IC50 [3]	mean (± S.E.) temporary threshold shift (TTS), averaged across frequencies [4]	AEP hearing threshold, significance of pairwise comparison against cisplatin ([4]; 100 Hz)	AEP hearing threshold, significance of pairwise comparison against vehicle ([4]; 100 Hz)	AEP hearing threshold, significance of pairwise comparison against cisplatin ([4]; 250 Hz)	AEP hearing threshold, significance of pairwise comparison against vehicle ([4]; 250 Hz)	AEP hearing threshold, significance of pairwise comparison against cisplatin ([4]; 400 Hz)	AEP hearing threshold, significance of pairwise comparison against vehicle ([4]; 400 Hz)	AEP hearing threshold, significance of pairwise comparison against cisplatin ([4]; 600 Hz)	AEP hearing threshold, significance of pairwise comparison against vehicle ([4]; 600 Hz)	AEP hearing threshold, significance of pairwise comparison against cisplatin ([4]; 800 Hz)	AEP hearing threshold, significance of pairwise comparison against vehicle ([4]; 800 Hz)	AEP hearing threshold, significance of pairwise comparison against cisplatin ([4]; 1000 Hz)	AEP hearing threshold, significance of pairwise comparison against vehicle ([4]; 1000 Hz)	AEP hearing threshold, significance of pairwise comparison against cisplatin ([4]; 1500 Hz)	AEP hearing threshold, significance of pairwise comparison against vehicle ([4]; 1500 Hz)	AEP hearing threshold, significance of pairwise comparison against cisplatin ([4]; 3000 Hz)	AEP hearing threshold, significance of pairwise comparison against vehicle ([4]; 3000 Hz)	also measured
[Cl][Pt-2]12[NH2+]CC[NH+]1CC[NH2+]2 (centres unmarked) [[Pt(dien)Cl]^+, Pt(diethylenetriamine)Cl]	41.5 ± 0.72 µM	209 ± 42.3 µM	56 ± 6.1 µM	12.0 ± 3.0 dB	ns (ns, p > 0.05)	* (* p ≤ 0.05)	ns (ns, p > 0.05)	ns (ns, p > 0.05)	ns (ns, p > 0.05)	**** (**** p ≤ 0.0001)	ns (ns, p > 0.05)	**** (**** p ≤ 0.0001)	ns (ns, p > 0.05)	**** (**** p ≤ 0.0001)	ns (ns, p > 0.05)	**** (**** p ≤ 0.0001)	ns (ns, p > 0.05)	ns (ns, p > 0.05)	ns (ns, p > 0.05)	* (* p ≤ 0.05)	effect on hair cell density in four regions of the saccule compared to vehicle [5]: no significant reduction in hair cell bundles
phenanthriplatin	1.6 ± 1.22 µM	2.41 ± 0.11 µM	1.24 ± 0.48 µM	13.3 ± 2.9 dB	* (* p ≤ 0.05)	*** (*** p ≤ 0.001)	ns (ns, p > 0.05)	ns (ns, p > 0.05)	ns (ns, p > 0.05)	*** (*** p ≤ 0.001)	ns (ns, p > 0.05)	** (** p ≤ 0.01)	* (* p ≤ 0.05)	**** (**** p ≤ 0.0001)	* (* p ≤ 0.05)	**** (**** p ≤ 0.0001)	ns (ns, p > 0.05)	ns (ns, p > 0.05)	** (** p ≤ 0.01)	**** (**** p ≤ 0.0001)	mean (± S.E.) temporary threshold shift (TTS), averaged across frequencies ([4]; listed as phenanthriplatin): 13 dB; effect on hair cell density in four regions of the saccule compared to vehicle [5]: reduction only at 50%; saccule hair cell density, % of control ([5]; 50% location along rostral-caudal axis): 64.8 % of control
